The supplement of paper PMC10307832

Columns and labels:
Test in all cases: relative viability (nuclei count vs DMSO), 5 days (fraction); higher = more cells survive
Carfilzomib + Phenformin = compound: CC(C)C[C@H](NC(=O)[C@H](CCc1ccccc1)NC(=O)CN1CCOCC1)C(=O)N[C@@H](Cc1ccccc1)C(=O)N[C@@H](CC(C)C)C(=O)[C@@]1(C)CO1 [Carfilzomib] + N=C(N)NC(=N)NCCc1ccccc1 [Phenformin] (partner 250 µM)
Outline: (§1)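 For relative viability, nuclei counts in treated wells were divided by those in vehicle wells. Lung cancer cell lines had been pin-tool dosed in 1536-well plates the day after seeding and cultured for 5 days, then fixed and stained in one step (final 0.05% Triton X-100, 1% formaldehyde, 1 ug/ml Hoechst) and imaged at 4×. Doses were one drug alone or a fixed anchor-drug dose plus five library-drug doses (not always all listed) in √10 steps, and values are duplicate-plate medians.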

Crizotinib + Palbociclib = compound: C[C@@H](Oc1cc(-c2cnn(C3CCNCC3)c2)cnc1N)c1c(Cl)ccc(F)c1Cl [Crizotinib] + CC(=O)c1c(C)c2cnc(Nc3ccc(N4CCNCC4)cn3)nc2n(C2CCCC2)c1=O [Palbociclib] (partner 0.5 µM)
Outline: as §1

Olaparib + AZD7762 = compound: O=C(c1cc(Cc2n[nH]c(=O)c3ccccc23)ccc1F)N1CCN(C(=O)C2CC2)CC1 [Olaparib] + NC(=O)Nc1cc(-c2cccc(F)c2)sc1C(=O)N[C@H]1CCCNC1 [AZD7762] (partner 0.2 µM)
Outline: as §1

Crizotinib + Lapatinib = compound: C[C@@H](Oc1cc(-c2cnn(C3CCNCC3)c2)cnc1N)c1c(Cl)ccc(F)c1Cl [Crizotinib] + CS(=O)(=O)CCNCc1ccc(-c2ccc3ncnc(Nc4ccc(OCc5cccc(F)c5)c(Cl)c4)c3c2)o1 [Lapatinib] (partner 2 µM)
Outline: as §1

Cell Line | relative viability (Carfilzomib + Phenformin; first compound 0.001 µM) | relative viability (Carfilzomib + Phenformin; first compound 0.003162 µM) | relative viability (Carfilzomib + Phenformin; first compound 0.01 µM) | relative viability (Carfilzomib + Phenformin; first compound 0.03162 µM) | relative viability (Carfilzomib + Phenformin; first compound 0.1 µM) | relative viability (Crizotinib + Palbociclib; first compound 0.01 µM) | relative viability (Crizotinib + Palbociclib; first compound 0.03162 µM) | relative viability (Crizotinib + Palbociclib; first compound 0.1 µM) | relative viability (Crizotinib + Palbociclib; first compound 0.3162 µM) | relative viability (Crizotinib + Palbociclib; first compound 1 µM) | relative viability (Olaparib + AZD7762; first compound 0.08 µM) | relative viability (Olaparib + AZD7762; first compound 0.253 µM) | relative viability (Olaparib + AZD7762; first compound 2.53 µM) | relative viability (Olaparib + AZD7762; first compound 8 µM) | relative viability (Crizotinib + Lapatinib; first compound 0.01 µM) | relative viability (Crizotinib + Lapatinib; first compound 0.03162 µM) | relative viability (Crizotinib + Lapatinib; first compound 0.1 µM) | relative viability (Crizotinib + Lapatinib; first compound 0.3162 µM) | relative viability (Crizotinib + Lapatinib; first compound 1 µM)
NCI-H522 | 0.697 | 0.719 | 0.668 | 0.515 | 0.401 | 0.998 | 1.18 | 0.827 | 1.04 | 1.02 | 0.974 | 0.896 | 0.809 | 0.705 | – | – | – | – | –
NCI-H441 | 0.785 | 0.898 | 0.242 | 0.161 | 0.177 | 0.207 | 0.267 | 0.212 | 0.188 | 0.2 | 1.16 | 1.03 | 1 | 0.446 | – | – | – | – | –
COR-L 105 | 0.572 | 0.391 | 0.526 | 0.261 | 0.203 | 0.4 | 0.427 | 0.397 | 0.388 | 0.409 | – | – | – | – | 0.345 | 0.38 | 0.373 | 0.32 | 0.374
NCI-H1623 | 0.5 | 0.612 | 0.725 | 0.19 | 0.414 | – | – | – | – | – | – | – | – | – | – | – | – | – | –
SW 900 | 0.431 | 0.937 | 0.133 | 0.163 | 0.138 | 0.544 | 0.453 | 0.497 | 0.546 | 0.514 | 0.652 | 0.637 | 0.584 | 0.555 | – | – | – | – | –
NCI-H2228 | 0.332 | 0.293 | 0.207 | 0.0804 | 0.108 | 0.714 | 0.608 | 0.691 | 0.432 | 0.367 | – | – | – | – | 0.814 | 0.827 | 1.06 | 0.488 | 0.412
NCI-H2009 | 0.514 | 0.564 | 0.449 | 0.155 | 0.101 | 0.185 | 0.208 | 0.249 | 0.189 | 0.193 | – | – | – | – | 0.845 | 0.984 | 0.956 | 0.812 | 0.93
NCI-H1299 | – | – | – | – | – | – | – | – | – | – | – | – | – | – | 0.966 | 0.942 | 0.896 | 0.996 | 0.955
COR-L23 | 0.442 | 0.435 | 0.404 | 0.0562 | 0.0638 | 0.289 | 0.269 | 0.298 | 0.256 | 0.328 | – | – | – | – | 0.835 | 1.1 | 0.983 | 0.985 | 0.985
NCI-H520 | 0.609 | 0.46 | 0.227 | 0.287 | 0.227 | 0.24 | 0.24 | 0.205 | 0.204 | 0.195 | – | – | – | – | 0.75 | 0.86 | 0.827 | 0.391 | 0.927
ChaGo-K-1 | 0.438 | 0.524 | 0.501 | 0.442 | 0.14 | 0.917 | 0.92 | 0.971 | 0.908 | 0.98 | 0.955 | 0.785 | 0.811 | 0.626 | – | – | – | – | –
IA-LM | – | – | – | – | – | – | – | – | – | – | – | – | – | – | 0.861 | 0.954 | 0.738 | 0.822 | 0.641
EBC-1 | – | – | – | – | – | – | – | – | – | – | – | – | – | – | 0.213 | 0.223 | 0.197 | 0.206 | 0.205
NCI-H1703 | – | – | – | – | – | – | – | – | – | – | 0.119 | 0.193 | 0.143 | 0.141 | 1.23 | 1.18 | 1.07 | 1.17 | 1.02
